Measured values: paper PMC11597089, “Kratom Alkaloids: A Blood–Brain Barrier Specific Membrane Permeability Assay-Guided Isolation and Cyclodextrin Complexation Study” (Molecules, 2024)

Legend:
[1] = ACE complex stability, HxDMS-α-CD; format: physicochemical; settings: hexakis-(2,3-O-dimethyl, 6-O-sulfo)-α-CD, 30 mM phosphate buffer pH 7.4, 25 °C
Method: (§1) To investigate the CD complexation behavior of the four kratom alkaloids, we aimed to develop an ACE method for a systematic comparative study. […] To ensure sufficient buffer capacity and to avoid excessive current and Joule heat generation, the buffer concentration was set to 30 mM, and the applied voltage was 15 kV.
(§2) The ACE experiments were performed by using Agilent 7100 and HP^3DCE instruments (Agilent Technologies, Waldbronn, Germany). Untreated fused silica capillaries (total length of 48.5 cm, effective length of 40 cm, inner diameter of 50 μm) were purchased from Agilent Technologies. The new capillaries were conditioned with a 1 M NaOH wash for 1 h, followed by a 30 min wash each with 0.1 M NaOH and purified water. Prior to all runs, the capillary was preconditioned by rinsing with background electrolyte for 3 min. During the measurements, 30 mM phosphate buffer at pH 7.4 (30 mM Na2HPO4-NaOH) was used. The background electrolyte contained CDs at various concentrations. Stock solutions of the studied kratom alkaloids (mitragynine, paynantheine, speciogynine, speciociliatine) were prepared separately in methanol (1 mg/mL), and, right before the measurements, appropriate dilutions with purified water were used to prepare the sample solutions, applying 0.1% DMSO as the electroosmotic flow (EOF) marker. The samples were injected hydrodynamically at 40 mbar for 3 s. The positive polarity voltage was set to 15 kV, and the capillary was set to 25 °C. The electropherograms were recorded at four wavelengths (200 nm, 210 nm, 215 nm, and 220 nm), and the data were evaluated at 215 nm. In each case, three parallel measurements were performed. The measurements were evaluated using Origin and CEval software (v. 0.6i3).
(§3) In order to determine the complex stability constants that characterized the strength of the complexes, the first step was to determine the effective mobility of the analyte at specific CD concentrations. Triangular peaks caused by electromigration dispersion are often observed in ACE measurements.
(§4) Assuming a 1:1 complexation ratio and that the equilibrium CD concentration is almost equal to the total CD concentration, a relationship between the effective mobility relative to the EOF and the complex stability constant can be described by Function (4) (4) μeff=μA+μACDKstabCD/1+KstabCD where µeff is the effective mobility of the analyte, µA and µACD are the free and complexed analyte mobilities, [CD] is the concentration of the selector, and Kstab is the complex stability constant.
(§5) In order to calculate the exact, apparent, averaged complex stability constant values, viscosity correction and ionic strength correction were used.

[2] = ACE complex stability, ODMS-γ-CD; format: physicochemical; settings: octakis-(2,3-O-dimethyl, 6-O-sulfo)-γ-CD, 30 mM phosphate buffer pH 7.4, 25 °C
Method: as §1, §2, §3, §4, §5

[3] = ACE complex stability, HMDiSu-β-CD; format: physicochemical; settings: heptakis-(2-O-methyl, 3,6-O-disulfo)-β-CD, 30 mM phosphate buffer pH 7.4, 25 °C
Method: as §1, §2, §3, §4, §5

[4] = ACE complex stability, Sualfadex; format: physicochemical; settings: hexakis-(6-deoxy-6-(2-carboxyethyl)thio)-α-CD, 30 mM phosphate buffer pH 7.4, 25 °C
Method: as §1, §2, §3, §4, §5

[5] = ACE complex stability, PIP-β-CD; format: physicochemical; settings: 6-monodeoxy-6-piperidine-β-CD, positively charged, 30 mM phosphate buffer pH 7.4, 25 °C
Method: as §1, §2, §3, §4, §5

[6] = ACE complex stability, MA-β-CD; format: physicochemical; settings: mono-(6-N-amino-6-deoxy)-β-CD, positively charged, 30 mM phosphate buffer pH 7.4, 25 °C
Method: as §1, §2, §3, §4, §5

[7] = ACE complex stability, MePIP-β-CD; format: physicochemical; settings: mono-6^A-(N-methyl-piperidine)-β-CD, positively charged, 30 mM phosphate buffer pH 7.4, 25 °C
Method: as §1, §2, §3, §4, §5

[8] = ACE complex stability, γ-CD; format: physicochemical; settings: 30 mM phosphate buffer pH 7.4, 25 °C, 15 kV, 215 nm
Method: as §1, §2, §3, §4, §5

[9] = ACE complex stability, SP-β-CD; format: physicochemical; settings: sulfopropylated-β-CD DS~2, 30 mM phosphate buffer pH 7.4, 25 °C
Method: as §1
(§6) The ACE experiments were performed by using Agilent 7100 and HP^3DCE instruments (Agilent Technologies, Waldbronn, Germany). Untreated fused silica capillaries (total length of 48.5 cm, effective length of 40 cm, inner diameter of 50 μm) were purchased from Agilent Technologies. The new capillaries were conditioned with a 1 M NaOH wash for 1 h, followed by a 30 min wash each with 0.1 M NaOH and purified water. Prior to all runs, the capillary was preconditioned by rinsing with background electrolyte for 3 min. During the measurements, 30 mM phosphate buffer at pH 7.4 (30 mM Na2HPO4-NaOH) was used. The background electrolyte contained CDs at various concentrations. […] The electropherograms were recorded at four wavelengths (200 nm, 210 nm, 215 nm, and 220 nm), and the data were evaluated at 215 nm. […] The measurements were evaluated using Origin and CEval software (v. 0.6i3). […]

[10] = ACE complex stability, HS-β-CD; format: physicochemical; settings: heptakis-(6-O-sulfo)-β-CD, 30 mM phosphate buffer pH 7.4, 25 °C
Method: as §1, §2
In order to determine the complex stability constants that characterized the strength of the complexes, the first step was to determine the effective mobility of the analyte at specific CD concentrations. Triangular peaks caused by electromigration dispersion are often observed in ACE measurements. […]

[11] = ACE complex stability, Sugammadex; format: physicochemical; settings: octakis(6-deoxy-6-(2-carboxyethyl)thio)-γ-CD, 30 mM phosphate buffer pH 7.4, 25 °C
Method: as §1, §6

[12] = ACE complex stability, SBE-β-CD DS~10.4; format: physicochemical; settings: sulfobutyl-ether-β-CD DS~10.4, 30 mM phosphate buffer pH 7.4, 25 °C
Method: as §1, §6

[13] = phase-solubility study, Sugammadex; format: physicochemical; settings: 30 mM phosphate buffer pH 7.4, room temperature
Method: (§7) Based on our ACE measurements, the promising CDs were selected for phase-solubility studies, along with the most widely used CD excipients, to investigate the effect of CD type and its concentration on mitragynine solubility. The experiments were conducted under conditions similar to those in the ACE measurements, applying 30 mM phosphate buffer (pH 7.4) and room temperature.
(§8) UV spectra and chromatograms were recorded at 200–400 nm, and the chromatogram obtained at 226 nm was used for quantitative analyses.
(§9) Solubility measurements were performed according to Higuchi and Connors. To each 1 mg mitragynine sample, the selected cyclodextrins were added. The final concentration of the CDs was in the range of 0–1 (m/v) %. Suspensions were shaken at room temperature for 24 h and filtered using 0.22 μm filters. The mitragynine concentration in the samples was determined by the above-described UHPLC-UV method. The solubility diagrams were constructed, and the stability constant (Kstab) and complexation efficacy (CE) were calculated using the following formulas:(5) Kstab=slope/S0(1−slope) (6) CE=slope/1−slope where S0 is the intrinsic solubility of a poorly soluble drug. The experiments were performed in a 30 mM phosphate buffer (pH 7.4).

[14] = phase-solubility study, β-CD; format: physicochemical; settings: 30 mM phosphate buffer pH 7.4, room temperature
Method: as §7, §8, §9

[15] = phase-solubility study, SBE-β-CD DS~10.4; format: physicochemical; settings: 30 mM phosphate buffer pH 7.4, room temperature
Method: as §7, §8, §9

[16] = phase-solubility study, HP-β-CD; format: physicochemical; settings: 30 mM phosphate buffer pH 7.4, room temperature
Method: as §7, §8, §9

[17] = parameters: method as in PMID 25793541; settings: at pH 7; cited from earlier work
[18] = phase-solubility study, S-β-CD; format: physicochemical; settings: 30 mM phosphate buffer pH 7.4, room temperature
Method: as §7, §8, §9

[19] = parameters: method as in PMID 28551311; settings: in vivo microdialysis technique, in words; cited from earlier work

Row | Compound | complex stability constant (Kstab) with HxDMS-α-CD [1] [M⁻¹] | complex stability constant (Kstab) with ODMS-γ-CD [2] [M⁻¹] | complex stability constant (Kstab) with HMDiSu-β-CD [3] [M⁻¹] | complex stability constant (Kstab) with Sualfadex [4] [M⁻¹] | complex stability constant (Kstab) with PIP-β-CD [5] [M⁻¹] | complex stability constant (Kstab) with MA-β-CD [6] [M⁻¹] | complex stability constant (Kstab) with MePIP-β-CD [7] [M⁻¹] | complex stability constant (Kstab) with γ-CD [8] [M⁻¹] | complex stability constant (Kstab) with SP-β-CD [9] [M⁻¹] | complex stability constant (Kstab) with HS-β-CD [10] [M⁻¹] | complex stability constant (Kstab) with Sugammadex [11] [M⁻¹] | also measured
1 | C=C[C@H]1CN2CCc3c([nH]c4cccc(OC)c34)[C@@H]2C[C@@H]1/C(=C\OC)C(=O)OC [Paynantheine, paynantheine] | 110 ± 8 | 280 ± 25 | 350 ± 10 | 80 ± 15 | < 10 | < 10 | < 10 | 140 ± 5 | 335 ± 35 | 575 ± 35 |  | 
2 | CC[C@@H]1CN2CCc3c([nH]c4cccc(OC)c34)[C@H]2C[C@@H]1/C(=C\OC)C(=O)OC [Speciociliatine, speciociliatine] | 240 ± 20 | 230 ± 15 | 100 ± 1 | 250 ± 45 | < 10 | < 10 | < 10 | 15 ± 1 |  | 850 ± 30 | 700 ± 45 | 
3 | CC[C@H]1CN2CCc3c([nH]c4cccc(OC)c34)[C@@H]2C[C@@H]1/C(=C\OC)C(=O)OC [Speciogynine, speciogynine] | 40 ± 4 | 250 ± 15 | 530 ± 10 | 75 ± 20 | < 10 | < 10 | < 10 | 45 ± 4 |  | 645 ± 30 |  | complex stability constant (Kstab) with SBE-β-CD DS~10.4 [12]: ~10,000 M^−1
4 | mitragynine | 50 ± 10 | 80 ± 7 | 230 ± 25 | 200 ± 25 | < 10 | < 10 | < 10 | 55 ± 5 | 210 ± 25 |  | 2050 | Kstab with Sugammadex (phase solubility) ([13]; 24 h, CD 0–1 (m/v) %): 1150 M⁻¹; complexation efficacy (CE) with Sugammadex ([13]; phase solubility): 0.0431; Kstab with β-CD (phase solubility) ([14]; 24 h, CD 0–1 (m/v) %): 55 M⁻¹; complexation efficacy (CE) with β-CD ([14]; phase solubility): 0.0021; Kstab with SBE-β-CD DS~10.4 (phase solubility) ([15]; 24 h, CD 0–1 (m/v) %): 1020 M⁻¹; complexation efficacy (CE) with SBE-β-CD DS~10.4 ([15]; phase solubility): 0.0382; Kstab with HP-β-CD (phase solubility) ([16]; 24 h, CD 0–1 (m/v) %): 30 M⁻¹; complexation efficacy (CE) with HP-β-CD ([16]; phase solubility): 0.0011; logD [17]: 1.73; Kstab with S-β-CD (phase solubility) ([18]; 24 h, CD 0–1 (m/v) %): 340 M⁻¹; complexation efficacy (CE) with S-β-CD ([18]; phase solubility): 0.0127; blood–brain barrier permeability [19]: excellent
